Results reported in patent US8263642B2, “Antimicrobial compounds and methods of use thereof” (Vanderbilt University, priority 2008, dated 2012).

Legend:
[1] = test system: S. aureus heme toxicity adaptation; test: Heme adaptation (resistance to heme-mediated toxicity), Newman; assay type: cell-based, Staphylococcus aureus; settings: whether compound induces heme adaptation
Protocol: With reference to Table 1, “Luminescence” refers to the raw luminescence value obtained in a luminomter. “Control (82.5 nm)” refers to the luminescence value obtained from heme at 82.5 nM as a positive control in the same plate as the experimental. “% lum” is the percentage of luminescence induced by the compound as compared to the heme control in the same plate. […] All of these assays are described in the application. […] “N/T” indicates the test was not performed.
This secondary counter screen can involve testing the compounds of interest for their ability to increase the resistance of wildtype S. aureus to heme-mediated toxicity. Upon sensing heme, HssRS increases the expression of hrtAB, in turn increasing the resistance of S. aureus to heme mediated toxicity. By extension, additional molecules recognized by HssRS leading to hrtAB activation can result in a similar increase in resistance to heme mediated toxicity. For this assay, bacteria can be grown for 15 hours in the presence of compounds of interest (using concentrations determined in the XylE assay), followed by subculture into TSB containing 10 μM heme. Compounds that increase the resistance of S. aureus to heme-mediated toxicity can be selected for further studies. S. aureus strains unable to adapt to heme mediated toxicity (ΔhssR) can be included as a negative control. As a positive control, wildtype S. aureus can be exposed to subinhibitory concentrations of heme prior to subculture. The inclusion of this secondary counterscreen can, in some aspects, rule out compounds that non-specifically increase the expression of the XylE and Lux-based reporter genes.
S. aureus cultures were grown overnight (O/N ˜15 hrs) at 37° C. with shaking at 180 RPM in tryptic soy broth (TSB). Cultures were diluted 1:75 and inoculated into roundbottom 96-well plates in a final volume of 150 μl. Cultures were grown at 37° C. with aeration and bacterial growth was monitored by the increase in absorbance (O.D.600) over time. For the hemin adaptation assays, the medium was supplemented with different hemin concentrations prior to bacterial inoculation. The results represent the mean±S.D. from triplicate determinations and the asterisks denote statistically significant differences as determined by Student's t test (p<0.05).

[2] = test system: hrtAB-driven expression of the xylE reporter gene; test: XylE reporter assay (hrtAB promoter-xylE), Newman; assay type: cell-based, Staphylococcus aureus; settings: for XylE (0.05): level of XylE induction at 0.05 uM of the compound; for XylE (0.5): level of XylE induction at 0.5 uM of the compound; for XylE (5.0): level of XylE induction at 5.0 uM of the compound; for XylE (50.0): level of XylE induction at 50.0 uM of the compound
Procedure, shortened: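 S. aureus carrying hrtAB promoter-xylE fusion in pOS1 grown O/N at 37° C in TSB with chloramphenicol, lysed with lysostaphin. Lysate XylE activity read as 2-hydroxymuconic semialdehyde formation from 0.2 mM pyrocatechol (A375, every minute for 30 minutes), normalised to BCA protein; unit = 1 nmol/min/mg at 30° C.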

| Structure (SMILES) | Heme Adapt [1] | XylE (0.05) [2] | XylE (0.5) [2] | XylE (5.0) [2] | XylE (50.0) [2] |
| --- | --- | --- | --- | --- | --- |
| COc1ccc(-c2cc(-c3ccc(C)cc3)[nH]n2)c(O)c1 | + | 0.08 | 0.02 | 0.07 | 0.09 |
| COc1ccc(-c2cc(-c3ccc(OC)cc3O)n[nH]2)cc1 | + | 0.06 | 0.02 | 0.7 | 4 |
| COc1ccc(C(=O)Nc2sc(-c3ccccc3)cc2C(N)=O)cc1 | + | 0.07 | 0.09 | 4 | 6 |
| Fc1ccc(CNC(=S)Nc2ccc(Oc3ccccc3)cc2)cc1 | + | 0.06 | 0.05 | 0.2 | 1 |
| CC(C)(C)c1ccc(O)c(NC(=S)NC(=O)c2cc3ccccc3o2)c1 | + | 0.09 | 0.8 | 0.9 | 1 |
| Oc1c(-c2cc(-c3ccco3)[nH]n2)ccc2ccccc12 [drawing 25] | + | 0.07 | 0.06 | 0.2 | 1000 |
| CC(NC(=O)C1(c2ccccc2)CCCC1)C1COc2ccccc2O1 (stereo not shown) [drawing 26] | + | 0.06 | 0.05 | 0.7 | 200 |
| Cc1ccc(O)c(NC(=O)c2nn3c(c2Br)NC(c2ccco2)CC3C(F)(F)F)c1 (stereo not shown) [drawing 29] | + | 0.05 | 0.06 | 5 | 3 |
| Cc1cccc(C(=O)Nc2ccc(-c3nc4ccccc4o3)cc2)c1 [drawing 43] | + | 0.09 | 0.7 | 1 | 0.09 |
| CC(NC(=O)C1(c2ccccc2)CCCC1)C1COc2ccccc2O1 (stereo not shown) [drawing 45] | + | 0.04 | 0.1 | 0.7 | 0.05 |
| O=C(N/N=C/c1ccc(-c2ccc(Br)cc2)o1)C1COc2ccccc2O1 (stereo not shown) [drawing 48] | + | 0.02 | 0.08 | 0.7 | 0.2 |
| O=C(N/N=C/c1ccc(-c2cccc(C(F)(F)F)c2)o1)C1COc2ccccc2O1 (stereo not shown) [drawing 49] | + | 0.07 | 0 | 0.6 | 0.09 |
| COc1ccc(Br)cc1C(=O)NC(=S)Nc1cc(C)c(C)cc1O [drawing 63] | + | 0.08 | 0.8 | 0.9 | 2 |
| Oc1c(-c2cc(-c3ccco3)[nH]n2)ccc2ccccc12 [drawing 65] | + | 0.4 | 0.07 | 12 | 5 |
| CCCN1C(=O)/C(=C2/C(=O)N(CC(=O)Nc3ccc(Cl)cc3)c3ccccc32)SC1=S [drawing 67] | + | 0.02 | 0.04 | 0.05 | 1 |
| Cc1ccc(NS(=O)(=O)c2ccc3c(c2)Cc2cc(S(=O)(=O)Nc4ccc(C)cc4)ccc2-3)cc1 [drawing 74] | + | 1 | 1 | 15 | 14 |
| COc1ccccc1NC1=C/C(=N\S(=O)(=O)c2ccc(Br)cc2)c2ccccc2C1=O [drawing 81] | + | 1 | 1 | 1 | 1 |
